Where only a bound is given, the exact number is not on record here.

For orientation: melting point means the temperature, or range, at which the solid turns liquid. As for `CCCCCCCCCCCCCCCCCCOC(=O)Nc1ccc(NC(=O)NS(=O)(=O)c2ccc(OC)cc2)cc1`, the melting point was found to be 190 °C.
On to `COC(=O)C1(CC(N)=O)C(=O)N(Cc2ccc(Br)cc2F)C(=O)c2ccccc21` (configuration not stated), for which the melting point lay in the range of 180 to 182 °C.
To `CCCCN(CCCC)c1ccc(C=C(S(C)(=O)=O)S(C)(=O)=O)cc1` belongs 114 to 115 °C; to `CCCCCC(O)/C=C/n1ccnc1` (configuration not stated), 145 to 148 °C; to `CN(c1ccccc1)S(=O)(=O)c1ccc(C#CC(C)(O)C(F)(F)F)cc1` (configuration not stated), 116 to 118 °C.
`N#Cc1csc(CN2C(=O)C3(COc4cc5c(cc43)OCO5)c3ccccc32)c1` (configuration not stated) gave a melting point of 207 to 209 °C.
For `COc1ccc(C2=NN(c3ccc(C(=O)O)cc3)C(=O)[C@H]3CC=CC[C@@H]23)cc1Cl` (relative stereo), the melting point is 222 to 224 °C.
In turn, `BrCCOc1ccsc1` had a melting point of 46 °C.
For `CC(C)(C)[Si](C)(C)Oc1ccc2c(c1)oc(=O)c1c3ccc(O[Si](C)(C)C(C)(C)C)cc3sc21`, the melting point lay in the range of 142 to 144 °C.
The compound `O=C(C=Cc1ccc(O)c(O)c1)OCCc1ccccc1` returned a melting point of 126 to 128 °C.
To `O=C(O)C(Oc1ccccc1)c1ccc(Oc2ccc(Cl)cc2)cc1` (configuration not stated) belongs 114 to 116 °C.
The compound `CN(C)C(=O)Nc1coc2ccccc2c1=S` displayed a melting point of 108 °C.
To `COC(=O)C1(C(F)(F)CCCCOc2ccc(Cl)cc2)CO1` (configuration not stated) belongs 40 to 48 °C; to `CCc1cc2c(cc1N)N1CCCN=C1S2`, 210 °C.
The compound `CCCCCCc1cc(C=O)c(O)cc1O` yielded a melting point of 108 to 110 °C.
The compound `Nc1ccc2ncnc(Nc3cccc(Cl)c3)c2c1` registered a melting point of over 150 °C.
The figure for `CCNn1cc(C(=O)O)c(=O)c2cc(F)c(N3CCNCC3)cc21` is 289 to 291 °C.
On to `Cc1ccc(-c2n[nH]c(=O)c(-c3ccccc3)c2-c2ccc(C)cc2)cc1`, for which the melting point lay within 282 to 284 °C.
`CCOC(=O)C(Cl)N=Nc1ccccc1C(=O)c1ccccn1` (configuration not stated) yielded a melting point of 123 to 125 °C.
On to `Cc1ccc(S(=O)(=O)N2CCC[C@H](C(C#N)(c3ccccc3)c3ccccc3)C2)cc1`, for which the melting point fell in the range of 148 to 150 °C.
`O=C(O)CCCNC(=O)n1cc(F)c(=O)[nH]c1=O` registered a melting point of 146 to 147 °C.
As to `O=Cc1cccc([N+]([O-])=Cc2cccc([N+](=O)[O-])c2)c1`, the melting point fell in the range of 195 to 197 °C.
The compound `CCC(Br)=C(CC)S(=O)(=O)CBr` displayed a melting point of 96 to 97 °C.
The figure for `OCc1cc(COc2ccc(Cl)cc2Cl)cc(OCc2ccccc2)c1` is 85 to 88 °C.
The figure for `Cc1ccccc1-c1ccc(C(=O)N2Cc3ccc(C(=O)NCc4ccc(Cl)cc4)n3Cc3ccccc32)cc1C` is 196 to 197 °C.
As to `NC(=S)C1CCCc2cccnc21` (configuration not stated), the melting point came to 160 °C.
Consider `CCOC(=O)C(=O)Nc1ccc(C(N)=O)c(C(N)=O)c1`, for which the melting point is 229 to 230 °C.
For the compound `O=c1c(Cl)nc2ccc(C(F)(F)F)cc2n1OCc1ccccc1`, the melting point lay within 148 to 150 °C.
The figure for `CN(C)C(=O)COC1c2ccccc2CCc2ccccc21` is 73 to 75 °C; for `CCCCC1(CCCC)CS(=O)(=O)c2ccc(N(C)C)cc2C(c2ccc(OCc3ccc(CN(CC(=O)O)CC(=O)O)cc3)cc2)C1O` (configuration not stated) it is 175 °C; for `CCC(=O)N1N=C(c2ccc([N+](=O)[O-])cc2)c2cc3c(cc2CC1C)OCO3` (configuration not stated) it is 189 to 190 °C.
`CC(Cc1nc(-c2ccccc2)cc2ccccc12)C(=O)O` (configuration not stated) displayed a melting point of 184 °C.
`Cc1cc(Cl)ccc1-n1nc(O)c2c(=O)c3ccc(Cl)cc3[nH]c2c1=O`: the melting point fell in the range of 336 to 339 °C.
In turn, `CCn1c(C)c(C(=O)c2ccccc2C(=O)O)c2ccccc21` showed a melting point of 184 to 185 °C.
In turn, `C#CCN1C(=O)COc2cc(F)c(-n3c(=O)oc4c(c3=O)CCC4)cc21` displayed a melting point of 222 to 224 °C.
To `O=C(O)C(Cl)(Cl)CCCCCCCCCCCCSc1ccccc1` belongs 74 °C; to `Cc1ccc(S(=O)(=O)NC(=O)CC(=O)N2CCCC2C(=O)N2CCN(C3(N4CCCC4)N=CC=C(N4CCCC4)N3)CC2)cc1` (single isomer, unassigned; (-)), 170 °C.
In the case of `Cc1csc2c(S(N)(=O)=O)c(C(N)=O)nn12`, the melting point was over 270 °C.
On to `COc1cc2ccc(CO)c(-c3ccnc(Br)c3)c2cc1OC`, for which the melting point lay within 150 to 153 °C.
Regarding `O=S1(=O)NCN(C2CCCCCC2)c2cc(Cl)ccc21`, the melting point lay in the range of 149 to 151 °C.
`CCCCOc1cc(CCC(=O)O)ccc1CCCc1ccc(OCCCC)c(OC)c1` gave a melting point of 64 °C.
With `CC#Cc1ccc(NC(=O)c2cccnc2NCc2ccc(=O)[nH]c2)cc1C(F)(F)F`, the melting point was in the range of 211 to 218 °C.
The figure for `BrCCCc1ccc(C=Cc2cc3ccccc3s2)s1` is 109 to 111 °C.
Compound `Cn1nc(C#N)nc1NCCCOc1cccc(CN2CCCCC2)c1` came in with a melting point of 66 to 67 °C.
The figure for `OCCC1=Cc2ccccc2C1` is 47 to 49 °C; for `CC(C)(CO)CCNC(=O)OC(C)(C)C` it is 75.5 to 76.5 °C; for `COC(=O)C(Cc1cc(OC)cc(OC)c1)c1ccc(Oc2ccc(C=C3SC(=O)NC3=O)cc2)cc1` (configuration not stated) it is 104 to 106 °C.
To `Cc1ccc2c3c(ccc2n1)OCC(CN1C2CCC1CC(O)(c1ccccc1)C2)O3` (configuration not stated) belongs 162 to 165 °C.
`CC(C)n1nc(-c2c(OCCN3C(=O)c4ccccc4C3=O)nc(N)nc2-c2ccccc2)ccc1=O` showed a melting point of 232 °C.
For the compound `Nc1ncnc2sc(Cc3cccnc3)c(-c3ccc(NC(=O)Nc4cccc(Cl)c4)cc3)c12`, the melting point lay in the range of 169 to 172 °C.
For the compound `O=C1NCC[C@@H]1NCc1ccc(OCc2cccc(F)c2)cc1`, the melting point lay within 140 to 144 °C.
Turning to `COc1ccc(-c2cc3cc(F)c(F)cc3[nH]2)cc1NCc1ccc([N+](=O)[O-])c(O)c1`, the melting point lay within 170 to 171 °C.
Take `Cc1cc([N+](=O)[O-])ccc1NC(=O)C1=C(O)N(C)S(=O)(=O)c2sccc21`: the melting point lay within 189 to 191 °C.
With `C=CCN(CC=C)Cc1noc(-c2ncn3c2[C@@H]2CCN2C(=O)c2c-3cccc2C(F)(F)F)n1`, the melting point was in the range of 147 to 150 °C.
The figure for `CCc1cccc2[nH]c3c(c12)CC(N(C)C)CC3` (configuration not stated) is 157 to 161 °C.
The compound `CNCCc1cccc(N2C(=O)N(c3ccc(Cl)cc3Cl)Cc3cnc(Nc4ccccc4)nc32)c1` had a melting point of 120 to 122 °C.
Turning to `CC(C)(C)OC(=O)c1ncn2c1[C@@H]1CCCN1C(=O)c1c(Br)cccc1-2`, the melting point was 206 to 208 °C.
In turn, `N#Cc1c(C(F)(F)F)nn(-c2c(Cl)cc(C(F)(F)F)cc2Cl)c1C(F)(F)F` gave a melting point of 88 to 92 °C.
For the compound `COC1CN(Cc2ccc(Nc3cc(-c4cccc(-n5ncc6cc(C(C)(C)C)cc(F)c6c5=O)c4CO)nn(C)c3=O)nc2)C1`, the melting point is 140 to 142 °C.
`COc1cc(CN2CCN(c3ccccc3C)CC2)cc(OC)c1OC`: the melting point was found to be 89 °C.
In turn, `CCOC(=O)N1Cc2ccnnc2C(NN=C(C)C)C1` (configuration not stated) came in with a melting point of 171 to 174 °C.
`Cn1c2ccccc2c2ccc3ccccc3c21`: the melting point is 167 to 169 °C.

(Values after a melting point compilation (Tetko et al.; mined from patent text by program, amines drawn as free bases though some values may be those of a salt).)
